From patent EP0838465A1, “Pyridinium-substituted (lactamylvinyl)cephalosporin derivatives, their preparation and their use as antibiotics” (F. HOFFMANN-LA ROCHE AG, priority 1996, dated 1998)
≈ marks a conversion by molar mass, not a printed value.

Key:
[1] = system: S.aureus 42080 (MRSA); experiment: In vitro activity, minimum inhibitory concentration by agar dilution method in Mueller Hinton agar; type: cell-based; details: Staphylococcus aureus, agar dilution method on Mueller-Hinton agar, inoculum 10^4 CFU/spot
Description: (§1) In vitro activity was determined by minimum inhibitory concentration in a microorganism spectum by the agar dilution method in Mueller Hinton agar.
(§2) The antibacterial Spectrum appears below: • MIC : Minimum Inhibiting Concentration Values

[2] = system: S.aureus 6538 (MSSA); experiment: as above; type: cell-based; details: Staphylococcus aureus, agar dilution method on Mueller-Hinton agar, inoculum 10^4 CFU/spot
Description: as §1, §2

[3] = system: MRSA (n=17); experiment: In vitro activity, MIC90 by agar dilution method in Mueller Hinton agar; type: cell-based, S. aureus; details: Staphylococcus aureus, agar dilution method on Mueller-Hinton agar, inoculum 10^5 CFU/spot
Description: as §1, §2

Compound | MIC [1] | MIC [2] | MIC90 [3]
Nc1nc(/C(=N/O)C(=O)N[C@@H]2C(=O)N3C(C(=O)[O-])=C(/C=C4\CCN(Cc5cc[n+](CC(=O)Nc6ccc(O)c(F)c6)cc5)C4=O)CS[C@H]23)cs1 [C, (6R,7R)-7-[(Z)-2-(2-Amino-thiazol-4-yl)-2-hydroxyimino-acetylamino]-3-[(E)-1-[1-[(3-fluoro-4-hydroxy-phenylcarbamoyl)-methyl]-pyridin-1-ium-4-ylmethyl]-2-oxo-pyrrolidin-3-ylidenemethyl]-8-oxo-5-thia-1-aza-bicyclo[4.2.0]oct-2-ene-2-carboxylate] | 4 µg/mL (≈ 5.53 µM) | 1 µg/mL (≈ 1.38 µM) | 4 µg/mL (≈ 5.53 µM)
Nc1nc(/C(=N/O)C(=O)N[C@@H]2C(=O)N3C(C(=O)[O-])=C(/C=C4\CCN(Cc5cc[n+](CC(=O)Nc6ccc(O)cc6)cc5)C4=O)CS[C@H]23)ns1 [B, (6R,7R)-7-[(Z)-2-(5-Amino-[1,2,4]thiadiazol-3-yl)-2-hydroxyimino-acetylamino]-3-[(E)-1-[1-[(4-hydroxy-phenylcarbamoyl)-methyl]-pyridin-1-ium-4-ylmethyl]-2-oxo-pyrrolidin-3-ylidenemethyl]-8-oxo-5-thia-1-aza-bicyclo[4.2.0]-oct-2-ene-2-carboxylate] | 4 µg/mL (≈ 5.67 µM) | 0.5 µg/mL (≈ 0.708 µM) | 4 µg/mL (≈ 5.67 µM)
Nc1nc(/C(=N/O)C(=O)N[C@@H]2C(=O)N3C(C(=O)[O-])=C(/C=C4\CCN(Cc5ccc[n+](CC(=O)Nc6ccc(O)c(F)c6)c5)C4=O)CS[C@H]23)cs1 [G, (6R,7R)-7-[(Z)-2-(2-Amino-thiazol-4-yl)-2-hydroxyimino-acetylamino]-3-[(E)-1-[1-[(3-fluoro-4-hydroxy-phenylcarbamoyl)-methyl]-pyridin-1-ium-3-ylmethyl]-2-oxo-pyrrolidin-3-ylidenemethyl]-8-oxo-5-thia-1-aza-bicyclo[4.2.0]oct-2-ene-2-carboxylate] | 4 µg/mL (≈ 5.53 µM) | 0.5 µg/mL (≈ 0.692 µM) | 8 µg/mL (≈ 11.1 µM)
COc1cc(NC(=O)C[n+]2ccc(CN3CC/C(=C\C4=C(C(=O)[O-])N5C(=O)[C@@H](NC(=O)/C(=N\O)c6csc(N)n6)[C@H]5SC4)C3=O)cc2)ccc1O [F, (6R,7R)-7-[(Z)-2-(2-Amino-thiazol-4-yl)-2-hydroxyimino-acetylamino]-3-[(E)-1-[1-[(4-hydroxy-3-methoxy-phenylcarbamoyl)-methyl]-pyridin-1-ium-4-ylmethyl]-2-oxo-pyrrolidin-3-ylidenemethyl]-8-oxo-5-thia-1-aza-bicyclo[4.2.0]oct-2-ene-2-carboxylate] | 8 µg/mL (≈ 10.9 µM) | 1 µg/mL (≈ 1.36 µM) | 8 µg/mL (≈ 10.9 µM)
Nc1nc(/C(=N/O)C(=O)N[C@@H]2C(=O)N3C(C(=O)[O-])=C(/C=C4\CCN(Cc5cc[n+](CC(=O)Nc6ccc(O)cc6)cc5)C4=O)CS[C@H]23)cs1 [A, (6R,7R)-7-[(Z)-2-(2-Amino-thiazol-4-yl)-2-hydroxyimino-acetylamino]-3-[(E)-1-[1-[(4-hydroxy-phenylcarbamoyl)-methyl]-pyridin-1-ium-4-ylmethyl]-2-oxo-pyrrolidin-3-ylidenemethyl]-8-oxo-5-thia-1-aza-bicyclo[4.2.0]oct-2-ene-2-carboxylate] | 4 µg/mL (≈ 5.68 µM) | 0.5 µg/mL (≈ 0.709 µM) | 8 µg/mL (≈ 11.4 µM)
Nc1nc(/C(=N/O)C(=O)N[C@@H]2C(=O)N3C(C(=O)[O-])=C(/C=C4\CCN(Cc5cc[n+](CC(=O)Nc6ccc(O)c(Cl)c6)cc5)C4=O)CS[C@H]23)cs1 [E, (6R,7R)-7-[(Z)-2-(2-Amino-thiazol-4-yl)-2-hydroxyimino-acetylamino]-3-[(E)-1-[1-[(3-chloro-4-hydroxy-phenylcarbamoyl)-methyl]-pyridin-1-ium-4-ylmethyl]-2-oxo-pyrrolidin-3-ylidenemethyl]-8-oxo-5-thia-1-aza-bicyclo[4.2.0]oct-2-ene-2-carboxylate] | 4 µg/mL (≈ 5.41 µM) | 0.5 µg/mL (≈ 0.676 µM) | 8 µg/mL (≈ 10.8 µM)
Nc1nc(/C(=N/O)C(=O)N[C@@H]2C(=O)N3C(C(=O)[O-])=C(/C=C4\CCN(Cc5cc[n+](CC(=O)Nc6ccc(O)c(F)c6)cc5)C4=O)CS[C@H]23)ns1 [D, (6R,7R)-7-[(Z)-2-(5-Amino-[1,2,4]thiadiazol-3-yl)-2-hydroxyimino-acetylamino]-3-[(E)-1-[1-[(3-fluoro-4-hydroxy-phenylcarbamoyl)-methyl]-pyridin-1-ium-4-ylmethyl]-2-oxo-pyrrolidin-3-ylidenemethyl]-8-oxo-5-thia-1-aza-bicyclo[4.2.0]oct-2-ene-2-carboxylate] | 4 µg/mL (≈ 5.53 µM) | 1 µg/mL (≈ 1.38 µM) | 4 µg/mL (≈ 5.53 µM)
